Where a name gives a salt, the structure may show the parent alone.
Key:
Type in all cases: in vivo
Heliothis virescens = Heliothis virescens (tobacco budworm) egg/artificial diet test; details: 96 h, 200 ppm (concentration in well 18 ppm), eggs 0-24 h old on artificial diet, 4 days, egg mortality, larval mortality, growth regulation
Method: Heliothis virescens (Tobacco Budworm): Eggs (0-24 h old) were placed in 24-well microtiter plate on artificial diet and treated with test solutions at an application rate of 200 ppm (concentration in well 18 ppm) by pipetting. After an incubation period of 4 days, samples were checked for egg mortality, larval mortality, and growth regulation.

Diabrotica balteata = Diabrotica balteata (corn root worm) artificial diet test; details: 120 h, 200 ppm (concentration in well 18 ppm), L2 larvae, 5 days, larval mortality, growth regulation
Method: Diabrotica Balteata (Corn Root Worm): A 24-well microtiter plate (MTP) with artificial diet was treated with test solutions at an application rate of 200 ppm (concentration in well 18 ppm) by pipetting. After drying, the MTP's were infested with larvae (L2) (6-10 per well). After an incubation period of 5 days, samples were checked for larval mortality, and growth regulation.

Plutella xylostella = Plutella xylostella (diamond back moth) artificial diet test; details: 144 h, 200 ppm (concentration in well 18 ppm), L2 larvae, 6 days, larval mortality, growth regulation
Method: Plutella xylostella (Diamond Back Moth): 24-well microtiter plate (MTP) with artificial diet was treated with test solutions at an application rate of 200 ppm (concentration in well 18 ppm) by pipetting. After drying, the MTP's were infested with L2 larvae (7-12 per well). After an incubation period of 6 days, samples were checked for larval mortality and growth regulation.

Spodoptera littoralis = Spodoptera littoralis (Egyptian cotton leafworm) cotton leaf disc spray test; details: foliar, 72 h, 200 ppm spray on cotton leaf discs, L1 larvae, 3 DAT, mortality, feeding behavior, growth regulation
From the text: Spodoptera littoralis (Egyptian Cotton Leafworm) Cotton leaf discs were placed on agar in a 24-well microtiter plate and sprayed with test solutions at an application rate of 200 ppm. After drying, the leaf discs were infested with 5 L1 larvae. The samples were checked for mortality, feeding behavior, and growth regulation 3 days after treatment (DAT).

Measured: pest or weed control at 200 ppm

O=C(Nc1cc(F)c(F)c(F)c1C1CCN(Cc2ccc(-c3ccc(F)cc3)cc2)CC1)c1ccnc(Cl)c1 [Compound E1, 2-chloro-N-{3,4,5-trifluoro-2-[1-(4′-fluoro-biphenyl-4-ylmethyl)-piperidin-4-yl]-phenyl}-isonicotinamide]
≥ 80%: all assays above

O=C(Nc1ccc(C(F)(F)F)cc1C1CCN(Cc2ccc(-c3ccc(Cl)cc3Cl)cc2)CC1)c1ccnc(Cl)c1 [Compound F1]
≥ 80%: all assays above

O=C(Nc1cc(F)c(F)c(F)c1C1CC[N+]([O-])(Cc2ccc(-c3ccc(F)cc3)cc2)CC1)c1ccnc(Cl)c1 (stereo not shown) [Compound G1, 2-chloro-N-{3,4,5-trifluoro-2-[1-(4′-fluoro-biphenyl-4-ylmethyl)-piperidin-4-yl]-phenyl}-isonicotinamide N-oxide]
≥ 80%: all assays above

O=C(Nc1ccc(C(F)(F)F)cc1C1CC[N+](O)(Cc2ccc(-c3ccc(F)cc3)cc2)CC1)c1ccnc(Cl)c1 (stereo not shown) [Compound J1]
≥ 80%: all assays above

O=C(Nc1ccc(C(F)(F)F)nc1C1CC[N+](O)(Cc2ccc(-c3ccc(F)cc3)cc2)CC1)c1ccnc(Cl)c1 (stereo not shown) [Compound K1, 2-chloro-N-[1′-(4′-fluoro-biphenyl-4-ylmethyl)-1′-oxy-6-trifluoromethyl-1′,2′,3′,4′,5′,6′-hexahydro-[2,4′]bipyridinyl-3-yl]-isonicotinamide 3-hydroxypropyl sulfonate salt]
≥ 80%: all assays above

O=C(Nc1cc(Cl)c(Cl)nc1C1CCN(Cc2ccc(-c3ccc(F)cc3)cc2)CC1)c1ccnc(Cl)c1 [Compound M1, hydrochloride]
≥ 80%: all assays above

O=C(Nc1ccc(C(F)(F)F)nc1C1CCN(Cc2ccc(-c3ccc(F)cc3)cc2)CC1)c1ccnc(Cl)c1 [Compound M4]
≥ 80%: all assays above

— patent publication US10034476B2, “Insecticidal phenyl-or pyridyl-piperdine compounds” (Syngenta Participations AG, priority 2008, dated 2018)
